According to patent EP4223292A1, “PHARMACEUTICAL COMBINATIONS FOR TREATING CANCER” (Cellestia Biotech AG, priority 2022, dated 2023):

System: Human TNBC cell line HCC1187
Test: In vivo efficacy study, tumor growth delay of subcutaneous HCC1187 xenograft
Parameters: species or system NSG mice
Conditions: for TGD compared to control (group a): endpoint ten times the initial volume (1000%), difference of MTTE versus control
Excerpt: Cultured cells were harvested, washed and counted. One million cells per mouse were subcutaneously transplanted into NSG mice. Animals were monitored for tumor growth. Once average tumor volume reached between 50-130 mm^3, animals were randomized for treatment with 6-(4-Tert-Butylphenoxy)Pyridin-3-Amine , Paclitaxel as single agent and 6-(4-Tert-Butylphenoxy)Pyridin-3-Amine + Paclitaxel combination. The treatment regimen was implemented as below: • a) Vehicle • b) 6-(4-Tert-Butylphenoxy)Pyridin-3-Amine single agent for 2 weeks • c) Paclitaxel single agent for 2 weeks and then monitor tumor growth without further treatment • d) 6-(4-Tert-Butylphenoxy)Pyridin-3-Amine + Paclitaxel combination for 2 weeks and then monitor tumor growth without further treatment • e) 6-(4-Tert-Butylphenoxy)Pyridin-3-Amine + Paclitaxel combination for 2 weeks and then continue treatment with 6-(4-Tert-Butylphenoxy)Pyridin-3-Amine alone as single agent and monitor tumor growth.
Tumor dimensions (L=length, W=width) were measured using a digital caliper. Tumor volume was calculated with the following formula: L^∗W^∗W/2. Tumor growth is followed as percentage of initial volume. Median Time To Endpoint (MTTE) was measured in days for an individual group to reach 1000% (10 times) the initial volume as end point. Tumor Growth Delay (TGD) was calculated as difference in days between MTTE of control and treatment groups.

Row | SMILES | TGD compared to control (group a) (group b: single agent for 2 weeks) | efficacy (in words) (single agent alone, HCC1187 xenograft) | TGD compared to control (group a) (groups c, d: treatment for 2 weeks, then no treatment)
1 | CC(C)(C)c1ccc(Oc2ccc(N)cn2)cc1 [6-(4-Tert-Butylphenoxy)Pyridin-3-Amine] | 3 days | only modest efficacy | 
2 | CC(=O)O[C@H]1C(=O)[C@@]2(C)[C@H]([C@H](OC(=O)c3ccccc3)[C@]3(O)C[C@H](OC(=O)[C@H](O)[C@@H](NC(=O)c4ccccc4)c4ccccc4)C(C)=C1C3(C)C)[C@]1(OC(C)=O)CO[C@@H]1C[C@@H]2O [Paclitaxel, reference compound] |  |  | 21 days
